Among the data in US20240383911A1, “AZAINDAZOLE MACROCYCLE COMPOUNDS AND USES THEREOF” (BROADENBIO CO., LTD, priority 2021, published 2024) are IC50 and activity values, retold here.

Assay [1] deals with T1, FLT3 (Homo sapiens, UniProt P36888).
T1 sequence (P36888 27-993): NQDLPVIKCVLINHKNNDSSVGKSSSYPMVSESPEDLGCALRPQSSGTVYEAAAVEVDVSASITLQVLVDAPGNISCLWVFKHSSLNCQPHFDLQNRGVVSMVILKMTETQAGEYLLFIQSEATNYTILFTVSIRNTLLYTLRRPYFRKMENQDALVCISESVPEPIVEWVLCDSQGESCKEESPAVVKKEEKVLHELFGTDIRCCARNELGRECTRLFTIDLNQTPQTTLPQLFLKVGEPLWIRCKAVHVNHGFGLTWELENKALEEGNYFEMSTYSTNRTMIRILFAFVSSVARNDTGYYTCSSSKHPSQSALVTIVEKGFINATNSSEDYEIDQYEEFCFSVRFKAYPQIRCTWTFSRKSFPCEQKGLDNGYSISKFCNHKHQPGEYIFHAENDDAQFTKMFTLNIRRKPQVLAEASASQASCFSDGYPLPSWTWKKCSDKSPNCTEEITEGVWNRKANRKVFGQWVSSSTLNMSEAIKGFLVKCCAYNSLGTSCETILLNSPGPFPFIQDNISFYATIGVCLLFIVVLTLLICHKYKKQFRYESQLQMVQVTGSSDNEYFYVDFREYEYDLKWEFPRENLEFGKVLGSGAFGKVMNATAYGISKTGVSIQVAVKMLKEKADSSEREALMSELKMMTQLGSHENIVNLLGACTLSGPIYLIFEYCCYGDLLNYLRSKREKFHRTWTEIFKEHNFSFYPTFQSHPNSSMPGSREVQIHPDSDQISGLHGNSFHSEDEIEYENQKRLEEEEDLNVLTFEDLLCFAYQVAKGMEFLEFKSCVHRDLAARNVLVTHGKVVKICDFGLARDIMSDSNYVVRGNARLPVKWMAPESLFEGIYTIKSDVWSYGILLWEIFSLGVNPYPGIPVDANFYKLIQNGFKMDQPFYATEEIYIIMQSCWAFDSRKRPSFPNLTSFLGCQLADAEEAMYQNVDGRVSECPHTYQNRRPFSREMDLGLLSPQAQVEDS
The assay is described as follows: FLT3 kinase activity inhibition test (HTRF). The following applies: read-out: IC50, inhibitory effects on FLT3 kinase activity. The class given is biochemical. On the procedure: (§1) Tested compounds: compounds prepared in the Examples of this invention.
(§2) Prepare compound stock solution: dissolve the test compound in 100% DMSO to make a 10 mM stock solution. Dilute the stock solution of the test compound by 5 times with 100% DMSO, make a 4-fold equal dilution in a 96-well dilution plate, add 1 μL of the compound to 39 μL of kinase reaction buffer (1×kinase buffer, 5 mM MgCl2, 1 mM DTT), and shake on a microplate shaker for 20 minutes. 4×Positive control (4 μL of positive compound solution of the starting concentration, add 196 μL of kinase buffer) and 4×negative control (4 μL of 100% DMSO, add 196 μL of kinase buffer).
(1) Use 1×kinase reaction buffer to prepare 2.5×FLT3 kinase solution (160 μM), transfer 2 μL of the kinase solution to the 384 reaction plate, and add 1 μL of the test compound solution of gradient concentration to the 384 reaction plate (Greiner, Cat #784075), centrifuge for 1 minute (1000 rpm), and incubate at 25° C. for 10 minutes.
(§3) (2) Use 1×kinase reaction buffer to prepare 2.5×TK-substrate-biotin (2.5 μM) and 2.5×ATP (2.5 μM), mix well, and add 2 μL of the TK-substrate-biotin/ATP solution to the 384 reaction plate, centrifuge for 30 seconds (1000 rpm), and incubate at 25° C. for 40 minutes.
(§4) (3) Use HTRF detection buffer to prepare 2×Sa-XL 665 (125 nM) and 1×TK-antibody-Cryptate. Add 5 μL of a mixture of Sa-XL 665 and TK-antibody-Cryptate solutions to each well, centrifuge for 30 seconds (1000 rpm), and react at room temperature for 1 hour.
(§5) (4) The fluorescence signal is read using a Biotek multi-function plate reader, and the IC50 (half inhibitory concentration) of the compound is obtained using a four-coefficient nonlinear fitting formula.

For assay [2], the target named is HPK1 (Homo sapiens, UniProt Q92918). The assay is described as follows: HPK1 kinase activity inhibition test (ADP-Glo, luminescence). The class given is biochemical. The following applies: 2 μM ATP, 5 nM HPK1, read-out: IC50, inhibitory effects on HPK1 kinase activity. In a few lines:
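Autophosphorylation assay without added substrate: HPK1 preincubated with compound 10 min at 25 °C, then ATP added for 60 min at 25 °C; final DMSO 0.5%. ADP measured by ADP-Glo luminescence; IC50 from four-parameter nonlinear fit.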

Assay [3] relates to Human Jurkat-E6-1 cells. Nature of the assay: Detection of IL-2 production by Jurkat cells using ELISA. Type of assay: cell-based. The following applies: anti-CD3/anti-CD28 stimulation 24 hours, read-out: Percentage of the amount of IL-2 secreted by compound treated vs DMSO-treated cells; for activity at 1 µM: tested compound 1.0 μM; for activity at 0.33 µM: tested compound 0.33 μM. In outline: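 Jurkat E6-1 cells were pre-incubated with compound for 30 min at 37 °C, then stimulated 24 h on plate-bound anti-CD3 plus soluble anti-CD28. Secreted IL-2 in supernatant was measured by sandwich ELISA (450 nm) against a standard curve and expressed as % of DMSO-treated cells.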

Assay [4] deals with KDR (Homo sapiens, UniProt P35968). Nature of the assay: KDR kinase activity inhibition test (HTRF). The following applies: read-out: IC50, inhibitory effects on KDR kinase activity. Type of assay: biochemical. How it is done:
as §1, §2
(1) Use 1×kinase reaction buffer to prepare 2.5×KDR kinase solution (250 μM), transfer 2 μL of the kinase solution to the 384 reaction plate, and add 1 μL of the test compound solution of gradient concentration to the 384 reaction plate (Greiner, Cat #784075), centrifuge for 1 minute (1000 rpm), and incubate at 25° C. for 10 minutes.
as §3, §4, §5

Sequence of HPK1 (Q92918 whole entry): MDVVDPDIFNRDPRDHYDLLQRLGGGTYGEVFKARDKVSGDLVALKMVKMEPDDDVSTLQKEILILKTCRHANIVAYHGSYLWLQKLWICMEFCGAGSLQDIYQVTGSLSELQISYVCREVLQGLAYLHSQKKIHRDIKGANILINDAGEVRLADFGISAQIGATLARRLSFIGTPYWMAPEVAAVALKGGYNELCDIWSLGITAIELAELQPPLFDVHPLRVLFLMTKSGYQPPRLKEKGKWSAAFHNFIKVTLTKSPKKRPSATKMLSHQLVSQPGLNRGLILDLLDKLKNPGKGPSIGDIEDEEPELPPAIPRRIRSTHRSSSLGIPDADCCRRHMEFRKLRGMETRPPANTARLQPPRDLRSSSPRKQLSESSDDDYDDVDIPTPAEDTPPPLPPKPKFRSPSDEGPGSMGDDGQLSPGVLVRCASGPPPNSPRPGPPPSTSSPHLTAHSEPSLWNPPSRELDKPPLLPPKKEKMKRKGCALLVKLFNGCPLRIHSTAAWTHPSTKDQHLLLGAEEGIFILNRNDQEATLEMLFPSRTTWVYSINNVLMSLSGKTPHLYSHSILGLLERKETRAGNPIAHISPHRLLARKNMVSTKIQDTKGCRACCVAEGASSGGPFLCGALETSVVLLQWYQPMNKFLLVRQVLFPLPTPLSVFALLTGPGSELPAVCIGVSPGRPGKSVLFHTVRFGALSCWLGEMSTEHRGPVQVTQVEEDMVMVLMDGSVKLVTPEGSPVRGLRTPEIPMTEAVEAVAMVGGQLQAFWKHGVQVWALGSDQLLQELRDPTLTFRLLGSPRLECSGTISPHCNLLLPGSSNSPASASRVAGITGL
Sequence of KDR (P35968 20-1356): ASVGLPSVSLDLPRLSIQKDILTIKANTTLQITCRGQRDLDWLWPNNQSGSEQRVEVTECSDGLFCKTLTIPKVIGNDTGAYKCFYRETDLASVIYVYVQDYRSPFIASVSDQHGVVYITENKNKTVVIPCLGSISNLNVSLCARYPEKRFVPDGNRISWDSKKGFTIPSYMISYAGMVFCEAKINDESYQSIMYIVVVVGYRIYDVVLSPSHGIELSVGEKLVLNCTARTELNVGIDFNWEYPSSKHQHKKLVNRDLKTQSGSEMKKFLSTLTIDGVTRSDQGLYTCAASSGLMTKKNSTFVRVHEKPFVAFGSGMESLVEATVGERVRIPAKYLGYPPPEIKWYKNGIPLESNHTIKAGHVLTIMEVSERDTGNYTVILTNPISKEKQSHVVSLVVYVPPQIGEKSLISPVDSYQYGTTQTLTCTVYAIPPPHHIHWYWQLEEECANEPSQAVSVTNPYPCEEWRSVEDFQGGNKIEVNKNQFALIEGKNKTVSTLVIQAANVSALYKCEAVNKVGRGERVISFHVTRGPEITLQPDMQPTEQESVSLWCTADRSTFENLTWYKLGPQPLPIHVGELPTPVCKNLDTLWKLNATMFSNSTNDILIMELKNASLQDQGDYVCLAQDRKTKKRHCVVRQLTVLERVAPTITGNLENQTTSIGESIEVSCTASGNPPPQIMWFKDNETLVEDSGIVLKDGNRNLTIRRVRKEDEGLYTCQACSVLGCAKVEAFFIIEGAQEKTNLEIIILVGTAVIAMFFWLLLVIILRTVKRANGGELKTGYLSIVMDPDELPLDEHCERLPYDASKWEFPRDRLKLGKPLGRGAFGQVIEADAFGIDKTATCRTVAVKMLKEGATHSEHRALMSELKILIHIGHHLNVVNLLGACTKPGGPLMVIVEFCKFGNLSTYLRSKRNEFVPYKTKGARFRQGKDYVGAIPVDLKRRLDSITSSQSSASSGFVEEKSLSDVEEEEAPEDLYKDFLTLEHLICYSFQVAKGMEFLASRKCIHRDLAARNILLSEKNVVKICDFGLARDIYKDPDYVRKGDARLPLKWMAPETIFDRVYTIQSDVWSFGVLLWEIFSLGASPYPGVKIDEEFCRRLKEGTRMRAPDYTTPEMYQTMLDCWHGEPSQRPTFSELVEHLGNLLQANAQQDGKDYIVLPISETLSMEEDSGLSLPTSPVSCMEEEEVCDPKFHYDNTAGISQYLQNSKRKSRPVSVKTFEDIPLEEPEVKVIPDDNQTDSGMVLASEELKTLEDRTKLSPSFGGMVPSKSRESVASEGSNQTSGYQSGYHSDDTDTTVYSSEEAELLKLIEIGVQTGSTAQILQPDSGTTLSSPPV

For `Fc1cccc2c1-c1cc3c(n[nH]c3cn1)-c1ccc(N3CCNCC3)c(c1)OCCCOC2` [Compound 10, 17-fluoro-5-(piperazin-1-yl)-7,11-dioxa-20,23,24-triazapentacyclo[17.5.2.1^2,6.0^13,18.0^22,25]heptacosa-1(24),2(27),3,5,13,15,17,19,21,25-decaene], the IC50 in assay [1] was at most 5 nM; in assay [2] it was at most 5 nM; in assay [4], 5 to 50 nM. For the same molecule, the activity at 1 µM in assay [3] is 298%.

`OCCN1CCN(c2ccc3cc2OCCCOCc2cccc(F)c2-c2cc4c-3n[nH]c4cn2)CC1` [Compound 12, 17-fluoro-5-(4-(2-hydroxyethyl)piperazin-1-yl)-7,11-dioxa-20,23,24-triazapentacyclo[17.5.2.1^2,6.0^13,18.0^22,25]heptacosa-1(24),2(27),3,5,13,15,17,19,21,25-decaene]: the half-maximal inhibitory concentration (IC50) in assay [1] was at most 5 nM; in assay [2], at most 5 nM; in assay [4] it was 5 to 50 nM.

As for `Fc1cccc2c1-c1cc3c(n[nH]c3cn1)-c1ccc(N3CCN4CCOC[C@H]4C3)c(c1)OCCCO2` [Compound 102, 5-[(9aR)-octahydropyrazino[2,1-c][1,4]oxazin-8-yl]-16-fluoro-7,11-dioxa-19,22,23-triazapentacyclo[16.5.2.1^2,6.0^12,17.0^21,24]hexacosa-1(23),2,4,6(26),12(17),13,15,18,20,24-decaene], the 50% inhibitory concentration (IC50) in assay [1], in assay [2] and in assay [4] was at most 5 nM each time. In assay [3], the activity at 1 µM was 702%.

Consider `Fc1cccc2c1-c1cc3c(n[nH]c3cn1)-c1ccc(N3CCN4CCOC[C@H]4C3)c(c1)OCCCOC2` [Compound 103, 5-[(9aR)-octahydropyrazino[2,1-c][1,4]oxazin-8-yl]-17-fluoro-7,11-dioxa-20,23,24-triazapentacyclo[17.5.2.1^2,6.0^13,18.0^22,25]heptacosa-1(24),2,4,6(27),13(18),14,16,19,21,25-decaene], for which the IC50 in assay [1], in assay [2] and in assay [4] was at most 5 nM throughout. Further, the activity at 0.33 µM in assay [3] worked out at 580%.

As for `O[C@H]1COc2cc(ccc2N2CCN3CCOC[C@H]3C2)-c2n[nH]c3cnc(cc23)-c2c(F)cccc2OC1` [Compound 119, (9R)-5-[(9aR)-octahydropyrazino[2,1-c][1,4]oxazin-8-yl]-16-fluoro-7,11-dioxa-19,22,23-triazapentacyclo[16.5.2.1^2,6.0^12,17.0^21,24]hexacosa-1(23),2,4,6(26),12(17),13,15,18,20,24-decaen-9-ol], the values for the IC50 in assay [1], in assay [2] and in assay [4] were at most 5 nM, 5 to 50 nM and at most 5 nM, respectively. Also, in assay [3], the activity at 0.33 µM came out at 591%.

On to `CN1CCN(c2ccc3cc2OCCCOCc2cccc(F)c2-c2cc4c-3n[nH]c4cn2)C[C@H]1CO` [Compound 122, [(2S)-4-{17-fluoro-7,11-dioxa-20,23,24-triazapentacyclo[17.5.2.1^2,6.0^13,18.0^22,25]heptacosa-1(24),2,4,6(27),13(18),14,16,19,21,25-decaen-5-yl}-1-methylpiperazin-2-yl]methanol], for which the IC50 in assay [1], in assay [2] and in assay [4] was at most 5 nM in each case. Further, in assay [3], the activity at 0.33 µM was 345%.

For the molecule `CN1C2CCC1CN(c1ccc3cc1OCCCOc1cccc(F)c1-c1cc4c-3n[nH]c4cn1)C2` [Compound 144, 16-fluoro-5-{8-methyl-3,8-diazabicyclo[3.2.1]octan-3-yl}-7,11-dioxa-19,22,23-triazapentacyclo[16.5.2.1^2,6.0^12,17.0^21,24]hexacosa-1(23),2,4,6(26),12(17),13,15,18,20,24-decaene], the IC50 in assay [1], in assay [2] and in assay [4] was at most 5 nM in each case. In addition, the activity at 1 µM in assay [3] worked out at 517%.
